The term IC50 denotes the concentration needed to halve the response being measured.

Sequence of Porcine DAAO (P00371 whole entry): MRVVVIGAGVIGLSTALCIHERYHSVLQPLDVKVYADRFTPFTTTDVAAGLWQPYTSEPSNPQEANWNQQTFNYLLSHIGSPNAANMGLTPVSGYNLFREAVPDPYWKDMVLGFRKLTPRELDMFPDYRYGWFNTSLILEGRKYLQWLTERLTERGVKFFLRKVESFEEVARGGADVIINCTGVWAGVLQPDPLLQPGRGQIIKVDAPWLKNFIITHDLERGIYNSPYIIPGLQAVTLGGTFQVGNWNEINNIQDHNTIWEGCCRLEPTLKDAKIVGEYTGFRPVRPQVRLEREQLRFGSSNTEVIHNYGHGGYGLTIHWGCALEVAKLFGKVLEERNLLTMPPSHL

The first assay deals with human recombinant D-amino acid oxidase (Homo sapiens (Human), UniProt P14920). Nature of the assay: In vitro D-amino acid oxidase (DAAO) assay, 96-well plate. In kind it is biochemical. As to conditions: human recombinant DAAO; D-serine 5 mM, FAD 1 μM, 20 min, room temperature, Tris buffer pH 8.5; read-out: Inhibition of DAAO IC50. As to the method: (§1) A reliable 96-well plate D-amino acid oxidase (DAAO) assay was developed based on previously published reports (J. Biol. Chem. 277: 27782 (2002)). […] All reactions were carried out for 20 min at room temperature in a 100-μL volume in Tris buffer (50 mM, pH 8.5). Additionally, stock solutions and serial dilutions of potential DAO inhibitors were made in 10:90 DMSO:buffer with a final assay DMSO concentration of 1%.
Sequence of human recombinant D-amino acid oxidase (P14920 whole entry): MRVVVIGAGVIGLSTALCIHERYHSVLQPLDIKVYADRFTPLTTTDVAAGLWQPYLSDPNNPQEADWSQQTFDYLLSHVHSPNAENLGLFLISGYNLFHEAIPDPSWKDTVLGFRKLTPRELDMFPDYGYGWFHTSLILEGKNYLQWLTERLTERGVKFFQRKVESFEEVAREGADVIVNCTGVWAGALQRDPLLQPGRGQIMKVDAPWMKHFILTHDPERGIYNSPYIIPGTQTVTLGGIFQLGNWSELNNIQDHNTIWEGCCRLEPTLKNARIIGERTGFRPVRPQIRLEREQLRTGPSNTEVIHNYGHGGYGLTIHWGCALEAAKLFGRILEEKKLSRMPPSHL
In the case of `O=c1[nH]c(=O)n(C[C@@H]2C[C@H]2c2ccccc2)nc1O` [Compound 10n, 6-Hydroxy-2-(((1R,2R)-2-phenylcyclopropyl)methyl)-1,2,4-triazine-3,5(2H,4H)-dione], the IC50 was 400 nM.
Still for that read-out and setting: to `O=c1[nH]c(=O)n(Cc2cccc3[nH]ccc23)nc1O` [Compound 10o, 2-((1H-indol-4-yl)methyl)-6-hydroxy-1,2,4-triazine-3,5(2H,4H)-dione] belongs 200 nM; to `O=c1[nH]c(=O)n(Cc2cccc3cnccc23)nc1O` [Compound 10p, 6-Hydroxy-2-(isoquinolin-5-ylmethyl)-1,2,4-triazine-3,5(2H,4H)-dione], 300 nM; to `O=c1[nH]c(=O)n(Cc2cccc3ccsc23)nc1O` [Compound 10q, 2-(Benzo[b]thiophen-7-ylmethyl)-6-hydroxy-1,2,4-triazine-3,5(2H,4H)-dione], 2000 nM.
Still for that read-out and setting: to `O=c1[nH]c(=O)n(CCc2cc(F)cc(F)c2)nc1O` [Compound 10r, 2-(3,5-Difluorophenethyl)-6-hydroxy-1,2,4-triazine-3,5(2H,4H)-dione] belongs 200 nM; to `O=c1[nH]c(=O)n(Cc2cccc3c(F)cccc23)nc1O` [Compound 10s, 2-((5-Fluoronaphthalen-1-yl)methyl)-6-hydroxy-1,2,4-triazine-3,5(2H,4H)-dione], 80 nM.
Same read-out and setting: to `CN(C)CCn1nc(O)c(=O)[nH]c1=O` [Compound 12a, 2-(2-(Dimethylamino)ethyl)-6-hydroxy-1,2,4-triazine-3,5(2H,4H)-dione] belongs 5000 nM; to `CC(C)N1CCN(CCn2nc(O)c(=O)[nH]c2=O)CC1` [Compound 12b, 6-Hydroxy-2-(2-(4-isopropylpiperazin-1-yl)ethyl)-1,2,4-triazine-3,5(2H,4H)-dione], 9000 nM.
On to `O=c1[nH]c(=O)n(CCN2CCN(c3ccccc3F)CC2)nc1O` [Compound 12c, 2-(2-(4-(2-Fluorophenyl)piperazin-1-yl)ethyl)-6-hydroxy-1,2,4-triazine-3,5(2H,4H)-dione], for which the IC50 is 3000 nM.
Same read-out and setting: to `O=c1[nH]c(=O)n(CCN2CCc3ccccc3C2)nc1O` [Compound 12d, 2-(2-(3,4-Dihydroisoquinolin-2(1H)-yl)ethyl)-6-hydroxy-1,2,4-triazine-3,5(2H,4H)-dione] belongs 700 nM; to `O=c1[nH]c(=S)n(CCc2ccccc2)nc1O` [Compound 16, 6-Hydroxy-2-phenethyl-3-thioxo-3,4-dihydro-1,2,4-triazin-5(2H)-one], 50 nM; to `O=C(Cn1nc(O)c(=O)[nH]c1=O)c1ccccc1` [Compound 20, 6-Hydroxy-2-(2-oxo-2-phenylethyl)-1,2,4-triazine-3,5(2H,4H)-dione], 1000 nM.
On the same count and under the same terms, with `O=c1[nH]c(=O)n(CC(O)c2ccccc2)nc1O` (stereo not drawn) [Compound 21, 6-Hydroxy-2-(2-hydroxy-2-phenylethyl)-1,2,4-triazine-3,5(2H,4H)-dione] the figure was 1000 nM; with `O=c1[nH]c(=O)n(Cc2cccc3cccnc23)nc1O` [Compound 25a, 6-Hydroxy-2-(quinolin-8-ylmethyl)-1,2,4-triazine-3,5(2H,4H)-dione], 3000 nM.
Same read-out and setting: with `O=c1[nH]c(=O)n(Cc2ccc(F)c3ccccc23)nc1O` [Compound 25b, 2-((4-Fluoronaphthalen-1-yl)methyl)-6-hydroxy-1,2,4-triazine-3,5(2H,4H)-dione] the figure was 200 nM.
As for `Cc1ccc(Cn2nc(O)c(=O)[nH]c2=O)c2ccccc12` [Compound 25c, 6-Hydroxy-2-((4-methylnaphthalen-1-yl)methyl)-1,2,4-triazine-3,5(2H,4H)-dione], the IC50 worked out at 1000 nM.
The same measure, in the same setting: to `O=c1[nH]c(=O)n(Cc2cccc3cc(Br)ccc23)nc1O` [Compound 25d, 2-((6-Bromonaphthalen-1-yl)methyl)-6-hydroxy-1,2,4-triazine-3,5(2H,4H)-dione] belongs 50 nM; to `O=c1[nH]c(=O)n(CCc2ccc(-c3ccccc3F)cc2)nc1O` [Compound 30, 2-(2-(2′-Fluorobiphenyl-4-yl)ethyl)-6-hydroxy-1,2,4-triazine-3,5(2H,4H)-dione], 80 nM.

For the next assay, the target named is Porcine DAAO (Sus scrofa (Pig), UniProt P00371). Nature of the assay: In vitro D-amino acid oxidase (DAAO) assay, porcine enzyme. In kind it is biochemical. Conditions: values marked *: Porcine DAAO was used to measure inhibitory potency; read-out: Inhibition of DAAO IC50. The protocol:
as §1
For the molecule `CCOc1ccc(CCn2nc(O)c(=O)[nH]c2=O)cc1` [Compound 10t, 2-(4-Ethoxyphenethyl)-6-hydroxy-1,2,4-triazine-3,5(2H,4H)-dione], the IC50 was 300 nM.
Still for that read-out and setting: to `Cc1ccc2ccccc2c1Cn1nc(O)c(=O)[nH]c1=O` [Compound 10u, 6-Hydroxy-2-((2-methylnaphthalen-1-yl)methyl)-1,2,4-triazine-3,5(2H,4H)-dione] belongs 600 nM; to `O=c1[nH]c(=O)n(CCc2ccc(N3CCOCC3)cc2)nc1O` [Compound 32, 6-Hydroxy-2-(4-morpholinophenethyl)-1,2,4-triazine-3,5(2H,4H)-dione], 1000 nM.

These data come from patent US9505753B2, “Inhibitors of D-amino acid oxidase” (THE JOHNS HOPKINS UNIVERSITY, priority 2012, dated 2016).
